Consider 18 compounds from PubChem BioAssay AID328 (DTP/NCI, 2004).

“And” between values parts separate entries of the source, which are not always exact repeats. Equal entries are not always repeated. Inconclusive results and toxic doses are left out.

For this assay, the system named is BDF1 mice, P388 leukemia ip, median survival T/C. As to the kind of experiment: NCI In Vivo Anticancer Drug Screen. Data for tumor model P388 Leukemia (intraperitoneal) in B6D2F1 (BDF1) mice. Particulars: endpoint: median survival time, higher = longer survival. The procedure, abridged:
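Each value expresses how treatment altered survival: treated-mouse outcome over vehicle-mouse outcome, both groups bearing the transplanted tumour.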

Where [1] appears, read: dose: 12.5 mg/kg/injection, schedule: Q04DX003 (ip), vehicle: saline with Tween-80.
The mark [2] stands for this setting: dose: 25.0 mg/kg/injection, schedule: Q04DX003 (ip), vehicle: saline with Tween-80.
[3] abbreviates: dose: 50.0 mg/kg/injection, schedule: Q01DX009 (ip), vehicle: saline.
Setting [4] is: dose: 100.0 mg/kg/injection, schedule: Q04DX003 (ip), vehicle: saline with Tween-80.
The mark [5] stands for this setting: dose: 200.0 mg/kg/injection, schedule: Q04DX003 (ip), vehicle: saline with Tween-80.
Where [6] appears, read: dose: 400.0 mg/kg/injection, schedule: Q04DX003 (ip), vehicle: saline with Tween-80.
Where [7] appears, read: dose: 50.0 mg/kg/injection, schedule: Q01DX009 (ip), vehicle: saline with Tween-80.
Where [8] appears, read: dose: 100.0 mg/kg/injection, schedule: Q01DX009 (ip), vehicle: saline with Tween-80.
Setting [9] is: dose: 200.0 mg/kg/injection, schedule: Q01DX009 (ip), vehicle: saline with Tween-80.
Setting [10] is: dose: 400.0 mg/kg/injection, schedule: Q01DX009 (ip), vehicle: saline with Tween-80.
Where [11] appears, read: dose: 100.0 mg/kg/injection, schedule: Q04DX003 (ip), vehicle: saline.

`C/C=C(\C)C(=O)OC1C(C)C2(O)C(C=C(CO)CC3(O)C(=O)C(C)=CC32)C2C(C)(C)C12OC(=O)CCCCCCCCC` (stereo not drawn): the T/C is 98 % of control (dose: 0.01 mg/kg/injection, schedule: Q01DX009 (ip), vehicle: gum acacia); 90 % of control (dose: 0.01 mg/kg/injection, schedule: Q01DX009 (ip), vehicle: saline + alcohol); 118 % of control (dose: 0.01 mg/kg/injection, schedule: Q01DX009 (ip), vehicle: saline with Tween-80); 93 % of control (dose: 0.02 mg/kg/injection, schedule: Q01DX009 (ip), vehicle: gum acacia); 110 % of control (dose: 0.03 mg/kg/injection, schedule: Q01DX009 (ip), vehicle: Klucel (hydroxypropylcellulose) (HPC)); 111 % of control (dose: 0.03 mg/kg/injection, schedule: Q01DX009 (ip), vehicle: gum acacia). The T/C was 93 % of control and 108 % of control (dose: 0.03 mg/kg/injection, schedule: Q01DX009 (ip), vehicle: saline + alcohol); 112 % of control (dose: 0.06 mg/kg/injection, schedule: Q01DX009 (ip), vehicle: Klucel (hydroxypropylcellulose) (HPC)); 90 % of control and 108 % of control (dose: 0.06 mg/kg/injection, schedule: Q01DX009 (ip), vehicle: saline + alcohol); 112 % of control (dose: 0.12 mg/kg/injection, schedule: Q01DX009 (ip), vehicle: Klucel (hydroxypropylcellulose) (HPC)); 112 % of control (dose: 0.25 mg/kg/injection, schedule: Q01DX009 (ip), vehicle: Klucel (hydroxypropylcellulose) (HPC)); 163 % of control (dose: 0.25 mg/kg/injection, schedule: Q01DX009 (ip), vehicle: saline + alcohol). The T/C is, setting by setting: (dose: 0.5 mg/kg/injection, schedule: Q01DX009 (ip), vehicle: Klucel (hydroxypropylcellulose) (HPC)) 119 % of control; (dose: 1.0 mg/kg/injection, schedule: Q01DX009 (ip), vehicle: Klucel (hydroxypropylcellulose) (HPC)) 91 % of control.

Take `CC1=C[S+](c2ccccc2)c2cccc3cc4ccccc4c1c23` (stereo not drawn): the T/C (dose: 0.4 mg/kg/injection, schedule: Q01DX009 (ip), vehicle: saline with Tween-80) was 154 % of control; the T/C (dose: 0.6 mg/kg/injection, schedule: Q01DX009 (ip), vehicle: saline with Tween-80) is 165 % of control; the T/C (dose: 0.9 mg/kg/injection, schedule: Q01DX009 (ip), vehicle: saline with Tween-80) is 154 % of control and 155 % of control; the T/C (dose: 2.5 mg/kg/injection, schedule: Q01DX009 (ip), vehicle: saline with Tween-80) is 116 % of control.

As for `C=CC(=O)Oc1ccc(Cl)cc1`, the T/C under setting [1] is 100 % of control; the T/C under setting [2] is 104 % of control; the T/C (dose: 50.0 mg/kg/injection, schedule: Q04DX003 (ip), vehicle: saline with Tween-80) is 118 % of control.

For `COC(=O)C1CSC2(CCCN(Cc3ccccc3)C2)N1` (stereo not drawn), the T/C is 113 % of control under setting [3]; 119 % of control (dose: 100.0 mg/kg/injection, schedule: Q01DX009 (ip), vehicle: saline); 96 % of control (dose: 200.0 mg/kg/injection, schedule: Q01DX009 (ip), vehicle: saline).

Consider `O=CNNS(=O)(=O)/C=C/c1ccccc1`, for which the T/C is, setting by setting: (dose: 12.5 mg/kg/injection, schedule: Q01DX009 (ip), vehicle: distilled water + Tween-80) 106 % of control; (dose: 25.0 mg/kg/injection, schedule: Q01DX009 (ip), vehicle: distilled water + Tween-80) 105 % of control; (dose: 50.0 mg/kg/injection, schedule: Q01DX009 (ip), vehicle: distilled water + Tween-80) 102 % of control; (dose: 100.0 mg/kg/injection, schedule: Q01DX009 (ip), vehicle: distilled water + Tween-80) 89 % of control; (dose: 200.0 mg/kg/injection, schedule: Q01DX009 (ip), vehicle: distilled water + Tween-80) 89 % of control.

With `COC(=O)C1OC1c1ccccc1` (stereo not drawn), the T/C runs as follows: (dose: 100.0 mg/kg/injection, schedule: Q01DX009 (ip), vehicle: Klucel (hydroxypropylcellulose) (HPC)) 100 % of control; (dose: 100.0 mg/kg/injection, schedule: Q04DX003 (ip), vehicle: Klucel (hydroxypropylcellulose) (HPC)) 95 % of control; (dose: 200.0 mg/kg/injection, schedule: Q01DX009 (ip), vehicle: Klucel (hydroxypropylcellulose) (HPC)) 100 % of control; (dose: 200.0 mg/kg/injection, schedule: Q04DX003 (ip), vehicle: Klucel (hydroxypropylcellulose) (HPC)) 95 % of control; (dose: 400.0 mg/kg/injection, schedule: Q01DX009 (ip), vehicle: Klucel (hydroxypropylcellulose) (HPC)) 100 % of control; (dose: 400.0 mg/kg/injection, schedule: Q04DX003 (ip), vehicle: Klucel (hydroxypropylcellulose) (HPC)) 95 % of control.

For `CCCCNC(=S)Nc1sc(C)c(C)c1C(=O)OCC`, the T/C runs as follows: under setting [4], 106 % of control; under setting [5], 99 % of control; under setting [6], 99 % of control.

Turning to `CCCNC(=O)Nc1cc(C(F)(F)F)ccc1Cl`, the T/C reads like this: under setting [4], 100 % of control; under setting [5], 100 % of control; under setting [6], 100 % of control.

With `CCCN(CCC)CC(O)c1cc(C(F)(F)F)nc2c(C(F)(F)F)cccc12` (stereo not drawn), the T/C is, setting by setting: under setting [7], 103 % of control; under setting [8], 100 % of control; under setting [9], 97 % of control.

With `CCCCCCC(N)C(C)O` (stereo not drawn), the T/C runs as follows: (dose: 12.5 mg/kg/injection, schedule: Q01DX009 (ip), vehicle: saline) 105 % of control; (dose: 25.0 mg/kg/injection, schedule: Q01DX009 (ip), vehicle: saline) 100 % of control; under setting [7], 101 % of control; under setting [3], 105 % of control.

Regarding `Cc1ccc(NC(=O)c2ccccc2Cl)cc1C`, the T/C by setting is: under setting [4], 104 % of control; under setting [5], 113 % of control; under setting [6], 109 % of control.

Regarding `Cc1ccc(CNc2cccnc2)cc1`, the T/C (dose: 50.0 mg/kg/injection, schedule: Q01DX009 (ip), vehicle: other) was 95 % of control; the T/C (dose: 100.0 mg/kg/injection, schedule: Q01DX009 (ip), vehicle: other) was 104 % of control; the T/C under setting [8] is 100 % of control; the T/C (dose: 200.0 mg/kg/injection, schedule: Q01DX009 (ip), vehicle: other) was 100 % of control; the T/C under setting [10] was 100 % of control.

Take `CC1(c2cccc(N)c2)OCCO1`: the T/C is 100 % of control under setting [8]; 90 % of control under setting [4]; 95 % of control under setting [9]; 109 % of control under setting [5]; 90 % of control under setting [10]; 109 % of control under setting [6].

For `O=C(Nc1cccc2c1C(=O)c1cccc(NC(=O)c3ccc(C(=O)Nc4cccc5c4C(=O)c4cccc(NC(=O)c6ccccc6)c4C5=O)cc3)c1C2=O)c1ccccc1`, the T/C is 92 % of control (dose: 6.25 mg/kg/injection, schedule: Q01DX009 (ip), vehicle: saline with Tween-80); 107 % of control (dose: 12.5 mg/kg/injection, schedule: Q01DX009 (ip), vehicle: saline with Tween-80); 111 % of control (dose: 25.0 mg/kg/injection, schedule: Q01DX009 (ip), vehicle: saline with Tween-80).

Regarding `O=C(/C=C/C=C/c1ccccc1)c1ccc(Cl)cc1`, the T/C is, setting by setting: under setting [8], 115 % of control; under setting [4], 100 % of control; under setting [9], 115 % of control; under setting [5], 90 % of control; under setting [10], 110 % of control; under setting [6], 109 % of control.

For the compound `CCOC(=O)CCC1(CCC(=O)OCC)OCCO1`, the T/C under setting [8] is 91 % of control; the T/C under setting [11] is 95 % of control; the T/C under setting [9] is 95 % of control; the T/C (dose: 200.0 mg/kg/injection, schedule: Q04DX003 (ip), vehicle: saline) is 109 % of control; the T/C under setting [10] was 108 % of control; the T/C (dose: 400.0 mg/kg/injection, schedule: Q04DX003 (ip), vehicle: saline) was 109 % of control.

Take `COCCOP(=O)(N1CC1)N1CC1`: the T/C (dose: 33.0 mg/kg/injection, schedule: Q04DX003 (ip), vehicle: saline) is 190 % of control; the T/C (dose: 50.0 mg/kg/injection, schedule: Q04DX003 (ip), vehicle: saline) is 236 % of control; the T/C (dose: 75.0 mg/kg/injection, schedule: Q04DX003 (ip), vehicle: saline) was 272 % of control; the T/C under setting [11] is 118 % of control.

For `Cc1cc(N(CCOS(C)(=O)=O)CCOS(C)(=O)=O)ccc1C=O`, the T/C under setting [1] is 231 % of control and the T/C under setting [2] is 120 % of control.
